For 21 molecules, IC50 results are on record in patent US9555038B2, “Heterocycle-substituted tetracyclic compounds and methods of use thereof for the treatment of viral diseases” (Merck Sharp & Dohme Corp., priority 2013, dated 2017).

Each structure is given as a SMILES string. Like-named read-outs stand apart in the source and are kept apart here.

One assay deals with HCV replicon 1A. Kind of assay: Cell-based HCV Replicon Assay A, replicon 1A. The method, then: (§1) To measure cell-based anti-HCV activity of compounds of the present invention, two complimentary assays were employed using various replicons. In the first assay (“Replicon Assay A”), replicon cells were seeded at 2000 cells/well in 384-well 384-well flat bottom tissue culture treated clear bottom plate (Corning 3707) in the presence of the test compound. Various concentrations of test compound, typically in 10 serial dilutions, were added to the assay mixture, with the starting concentration ranging from 333.3 nM to […]. The final concentration of DMSO was 0.5%. Fetal bovine serum was 5%, in the assay media. Cells were harvested on day 3 by removing media and washing the cells with a suitable wash buffer. The cells are lysed with the addition of 1× Qiagen lysis buffer (Cat #1062731). The replicon RNA level was measured using real time PCR (TaqMan® EZ RT-PCR, Applied Biosystems 403028) with the following primers and probes: […]
(§2) Cyclophilin RNA was used as endogenous control and was amplified in the same reaction as NS5B (multiplex PCR). The real-time RT-PCR reactions were run on ABI PRISM 7900HT Sequence Detection System using the following program: 50° C. for 2 minutes, 60° C. for 30 minutes, 95° C. for 5 minutes, 40 cycles of 94° C. for 20 sec, 55° C. for 1 minutes.
(§3) The amount of HCV replicon RNA per cell is quantified using a linear regression curve for a known nanogram (ng) amount of HCV replicon total RNA. This is established by plotting the Cycle Threshold values (Ct) from the Neo probe and primer set versus the log (ng) for each HCV replicon total RNA standard. The amount of HCV RNA for each replicon sample is calculated by taking the sample's Ct value, minus the line intercept, divided by the slope of the line. Similarly, the amount of Cyclophilin mRNA per cell is also quantified using a linear regression curve for a known nanogram (ng) amount of HCV replicon total RNA. Again, this is established by plotting the Cycle Threshold values (Ct) from the Cyclophilin probe and primer set versus the log (ng) for each HCV replicon total RNA standard.
(§4) Data was obtained for various compounds of the present invention using the methods described in the Example above, and is presented in the table immediately below. Data for replicons 1A, 1AY93H and 2B were obtained using Replicon Assay A and data for replicons 1AQ30D and 1B were obtained using Replicon Assay B.

Another assay relates to HCV replicon 1AY93H. Description: Cell-based HCV Replicon Assay A, replicon 1AY93H. The method, then:
as §1, §2, §3, §4

A further assay concerns HCV replicon 2B. Kind of assay: Cell-based HCV Replicon Assay A, replicon 2B. The protocol:
as §1, §2, §3, §4

Where [1] appears, read: Hepatitis C virus, read-out: 1A Y93H IC50 (nM), replicon 1AY93H.
[2] abbreviates: Hepatitis C virus, read-out: 2B IC50 (nM), replicon 2B.
Setting [3] is: read-out: 1A Y93H IC50, replicon 1AY93H.

`COC(=O)N[C@H](C(=O)C1CCC[C@H]1c1ncc(-c2ccc3c(c2)cc2n3C(c3cnc(CC(C)C)s3)Oc3cc(-c4cnc([C@@H]5CCCN5C(=O)[C@@H](NC(=O)OC)C(C)C)[nH]4)cc(F)c3-2)[nH]1)C(C)C` (mixture of isomers) [Compound 403]: the 50% inhibitory concentration (IC50) worked out at 6.4 pM in the assay on HCV replicon 1A (Hepatitis C virus), 0.016 nM with HCV replicon 1AY93H (setting [1]) and 0.142 nM in the assay with HCV replicon 2B (setting [2]).
Turning to `CCN(CC)c1ncc(C2Oc3cc(-c4cnc([C@@H]5CCCN5C(=O)[C@@H](NC(=O)OC)C(C)C)[nH]4)cc(F)c3-c3cc4cc(-c5cnc([C@@H]6CCCN6C(=O)[C@@H](NC(=O)OC)C(C)C)[nH]5)ccc4n32)s1` (mixture of isomers) [Compound 404], the half-inhibitory concentration (IC50) in the assay on HCV replicon 1A (Hepatitis C virus) turned out to be 12 pM; with HCV replicon 1AY93H (setting [1]) it was 0.0386 nM; in the assay on HCV replicon 2B (setting [2]), 0.206 nM.
On the same counts, the results for `COC(=O)N[C@H](C(=O)N1CCC[C@H]1c1ncc(-c2cc(F)c3c(c2)OC(c2cn4ccnc4s2)n2c-3cc3cc(-c4cnc([C@@H]5CCCN5C(=O)[C@@H](NC(=O)OC)C(C)C)[nH]4)ccc32)[nH]1)C(C)C` (mixture of isomers) [Compound 417] are 3.1 pM, 0.996 nM and 0.453 nM.
As for `COC(=O)N[C@H](C(=O)N1CCC[C@H]1c1ncc(-c2cc(F)c3c(c2)OC(c2cnc(-c4cnn(C)c4)s2)n2c-3cc3cc(-c4cnc([C@@H]5CCCN5C(=O)[C@@H](NC(=O)OC)C(C)C)[nH]4)ccc32)[nH]1)C(C)C` (mixture of isomers) [Compound 425], the figures for the IC50 with HCV replicon 1A (Hepatitis C virus), in the assay with HCV replicon 1AY93H (setting [1]) and in the assay on HCV replicon 2B (setting [2]) were 6.9 pM, 0.534 nM and 1.78 nM, respectively.
For the molecule `COC(=O)N[C@H](C(=O)N1CCC[C@H]1c1ncc(-c2cc(F)c3c(c2)OC(c2ncc(C4CC4)s2)n2c-3cc3cc(-c4cnc([C@@H]5CCCN5C(=O)[C@@H](NC(=O)OC)C(C)C)[nH]4)ccc32)[nH]1)C(C)C` (single isomer, unassigned) [Compound 7], the half-inhibitory concentration (IC50) in the assay with HCV replicon 1A (Hepatitis C virus) stood at 1.4 pM; in the assay with HCV replicon 1AY93H (setting [3]) it was 4.23 nM; with HCV replicon 2B (read-out: 2B IC50, replicon 2B) it was 2.14 nM.
For `COC(=O)N[C@H](C(=O)N1CCC[C@H]1c1ncc(-c2cc(F)c3c(c2)OC(c2ncc(C4CC4)s2)n2c-3cc3cc(-c4cnc([C@@H]5CCCN5C(=O)[C@@H](NC(=O)OC)C(C)C)[nH]4)ccc32)[nH]1)C(C)C` (single isomer, unassigned) [Compound 8], the IC50 in the assay on HCV replicon 1A amounted to 1.7 pM; with HCV replicon 1AY93H (setting [3]) it was 0.15 nM; in the assay with HCV replicon 2B (read-out: 2B IC50, replicon 2B), 0.14 nM.
Take `COC(=O)N[C@H](C(=O)N1CCC[C@H]1c1ncc(-c2cc(F)c3c(c2)OC(c2cnc(C4CC4)s2)n2c-3cc3cc(-c4cnc([C@@H]5CCCN5C(=O)[C@@H](NC(=O)OC)C(C)C)[nH]4)ccc32)[nH]1)C(C)C` (single isomer, unassigned) [Compound 9]: the IC50 in the assay with HCV replicon 1A (Hepatitis C virus) worked out at 1.6 pM; in the assay on HCV replicon 1AY93H (setting [3]) it was 0.86 nM; in the assay with HCV replicon 2B (read-out: 2B IC50, replicon 2B), 1.56 nM.
In the case of `COC(=O)N[C@H](C(=O)N1CCC[C@H]1c1ncc(-c2cc(F)c3c(c2)OC(c2cnc(OC)s2)n2c-3cc3cc(-c4cnc([C@@H]5CCCN5C(=O)[C@@H](NC(=O)OC)C(C)C)[nH]4)ccc32)[nH]1)C(C)C` (single isomer, unassigned) [Compound 13], the 50% inhibitory concentration (IC50) in the assay with HCV replicon 1A (Hepatitis C virus) was 1.1 pM; in the assay on HCV replicon 1AY93H (setting [3]), 0.621 nM; in the assay with HCV replicon 2B (read-out: 2B IC50, replicon 2B), 0.446 nM.
On the same counts, the results for `COC(=O)NC(C(=O)N1CCC[C@H]1c1ncc(-c2ccc3c(c2)cc2n3C(c3cnc(C)s3)Oc3cc(-c4cnc([C@@H]5CCCN5C(=O)[C@@H](NC(=O)OC)C(C)C)[nH]4)cc(F)c3-2)[nH]1)C1C[C@@H](C)O[C@@H](C)C1` (single isomer, unassigned) [Compound 29] are 2 pM, 1.09 nM and 0.192 nM.
Regarding `COC(=O)N[C@H](C(=O)N1CCC[C@H]1c1ncc(-c2cc(F)c3c(c2)OC(c2cnc(-c4ccc(F)cc4)s2)n2c-3cc3cc(-c4cnc([C@@H]5CCCN5C(=O)[C@@H](NC(=O)OC)C(C)C)[nH]4)ccc32)[nH]1)C(C)C` (single isomer, unassigned) [Compound 32], the IC50 in the assay on HCV replicon 1A worked out at 1.2 pM; in the assay on HCV replicon 1AY93H (setting [3]), 0.344 nM; with HCV replicon 2B (read-out: 2B IC50, replicon 2B) it was 0.231 nM.
For the molecule `CCc1ncc(C2Oc3cc(-c4cnc([C@@H]5CCCN5C(=O)[C@@H](NC(=O)OC)C(C)C)[nH]4)cc(F)c3-c3cc4cc(-c5cnc([C@@H]6CCCN6C(=O)C(NC(=O)OC)C6C[C@@H](C)O[C@@H](C)C6)[nH]5)ccc4n32)s1` (single isomer, unassigned) [Compound 35], the half-maximal inhibitory concentration (IC50) with HCV replicon 1A (Hepatitis C virus) was 2.6 pM; with HCV replicon 1AY93H (setting [3]) it was 0.161 nM; in the assay on HCV replicon 2B (read-out: 2B IC50, replicon 2B), 0.125 nM.
Turning to `CCc1ncc(C2Oc3cc(-c4cnc([C@@H]5CCCN5C(=O)[C@@H](NC(=O)OC)C(C)C)[nH]4)cc(F)c3-c3cc4cc(-c5cnc([C@@H]6CCCN6C(=O)C(NC(=O)OC)C6CCOC(C)(C)C6)[nH]5)ccc4n32)s1` (single isomer, unassigned) [Compound 37], the 50% inhibitory concentration (IC50) amounted to 2.2 pM with HCV replicon 1A (Hepatitis C virus); 0.257 nM in the assay with HCV replicon 1AY93H (setting [3]); 0.226 nM in the assay with HCV replicon 2B (read-out: 2B IC50, replicon 2B).
For `CCc1ncc(C2Oc3cc(-c4cnc([C@@H]5CCCN5C(=O)[C@@H](NC(=O)OC)C(C)C)[nH]4)cc(F)c3-c3cc4cc(-c5cnc([C@@H]6CCCN6C(=O)C(NC(=O)OC)C6CCOC(C)(C)C6)[nH]5)ccc4n32)s1` (single isomer, unassigned) [Compound 38], the IC50 in the assay on HCV replicon 1A is 2.9 pM; in the assay on HCV replicon 1AY93H (setting [3]) it was 0.204 nM.
As for `CCc1ncc(C2Oc3cc(-c4cnc([C@@H]5CCCN5C(=O)[C@@H](NC(=O)OC)C(C)C)[nH]4)cc(F)c3-c3cc4cc(-c5cnc([C@@H]6CCCN6C(=O)C(NC(=O)OC)C6CCOC(C)(C)C6)[nH]5)ccc4n32)s1` (single isomer, unassigned) [Compound 39], the IC50 in the assay on HCV replicon 1A was determined as 3.7 pM; in the assay with HCV replicon 1AY93H (setting [3]), 0.0112 nM; in the assay with HCV replicon 2B (read-out: 2B IC50, replicon 2B), 0.004 nM.
On the same counts, the results for `COC(=O)N[C@H](C(=O)N1CCC[C@H]1c1ncc(-c2cc(F)c3c(c2)OC(c2cnc(-c4ccc(Cl)cc4)s2)n2c-3cc3cc(-c4cnc([C@@H]5CCCN5C(=O)[C@@H](NC(=O)OC)C(C)C)[nH]4)ccc32)[nH]1)C(C)C` (single isomer, unassigned) [Compound 54] are 1.3 pM, 0.429 nM and 0.248 nM.
With `COC(=O)NC(C(=O)N1CCC[C@H]1c1ncc(-c2ccc3c(c2)cc2n3C(c3cnc(C(C)C)s3)Oc3cc(-c4cnc([C@@H]5CCCN5C(=O)[C@@H](NC(=O)OC)C(C)C)[nH]4)cc(F)c3-2)[nH]1)C1C[C@@H](C)O[C@@H](C)C1` (single isomer, unassigned) [Compound 56], the IC50 in the assay with HCV replicon 1A (Hepatitis C virus) turned out to be 1.1 pM; with HCV replicon 1AY93H (setting [3]), 0.285 nM; in the assay with HCV replicon 2B (read-out: 2B IC50, replicon 2B) it was 0.104 nM.
`CCCc1ncc(C2Oc3cc(-c4cnc([C@@H]5CCCN5C(=O)[C@@H](NC(=O)OC)C(C)C)[nH]4)cc(F)c3-c3cc4cc(-c5cnc([C@@H]6CCCN6C(=O)C(NC(=O)OC)C6CCOC(C)(C)C6)[nH]5)ccc4n32)s1` (single isomer, unassigned) [Compound 58]: the IC50 in the assay with HCV replicon 1A (Hepatitis C virus) was 2.6 pM; in the assay on HCV replicon 1AY93H (setting [3]) it was 0.0086 nM; with HCV replicon 2B (read-out: 2B IC50, replicon 2B) it was 0.003 nM.
In the case of `COC(=O)NC(C(=O)N1CCC[C@H]1c1ncc(-c2ccc3c(c2)cc2n3C(c3cnc(C(C)C)s3)Oc3cc(-c4cnc([C@@H]5CCCN5C(=O)[C@@H](NC(=O)OC)C(C)C)[nH]4)cc(F)c3-2)[nH]1)C1CCOC(C)(C)C1` (single isomer, unassigned) [Compound 62], the IC50 in the assay with HCV replicon 1A worked out at 1.8 pM; with HCV replicon 1AY93H (setting [1]) it was 0.212 nM; in the assay with HCV replicon 2B (read-out: 2B IC50, replicon 2B), 0.427 nM.
On to `COC(=O)NC(C(=O)N1[C@@H]2C[C@@H]2C[C@H]1c1ncc(-c2ccc3c(c2)cc2n3C(c3cnc(C(C)C)s3)Oc3cc(-c4cnc([C@@H]5CCCN5C(=O)[C@@H](NC(=O)OC)C(C)C)[nH]4)cc(F)c3-2)[nH]1)C1CCOC(C)(C)C1` (single isomer, unassigned) [Compound 69], for which the IC50 in the assay with HCV replicon 1A turned out to be 42.4 pM; in the assay with HCV replicon 1AY93H (setting [3]) it was 2.87 nM.
Take `CCc1nnc(C2Oc3cc(-c4cnc([C@@H]5CCCN5C(=O)[C@@H](NC(=O)OC)C(C)C)[nH]4)cc(F)c3-c3cc4cc(-c5cnc([C@@H]6CCCN6C(=O)C(NC(=O)OC)C(C)C)[nH]5)ccc4n32)s1` (single isomer, unassigned) [Compound 115]: the IC50 in the assay with HCV replicon 1A worked out at 8 pM; with HCV replicon 1AY93H (setting [1]), 0.79 nM.
On to `COC(=O)N[C@H](C(=O)N1CCC[C@H]1c1ncc(-c2cc(F)c3c(c2)OC(c2cnc(CC(C)(C)C)s2)n2c-3cc3cc(-c4cnc([C@@H]5CCCN5C(=O)[C@@H](NC(=O)OC)C(C)C)[nH]4)ccc32)[nH]1)C(C)C` (single isomer, unassigned) [Compound 523], for which the IC50 in the assay with HCV replicon 1A amounted to 1.2 pM; in the assay on HCV replicon 1AY93H (replicon 1AY93H, read-out: 1A Y93H IC50) it was 0.13 nM.
